ChEMBL document CHEMBL6096683, “Novel Orthosteric/Allosteric Ligands of Cannabinoid Receptors: An Unexpected Pharmacological Profile” (J Med Chem, 2025)
Calls of active or inactive are those of the source. The calls are words filed in the database; no cut-off is given here.

Columns and labels:
BEND3 [1] = experiment: Disruption of monolayer integrity in mouse BEND3 cells assessed as change in TEER modulation at 180 mins; type: functional, cell-based
BEND3 [2] = experiment: Disruption of monolayer integrity in mouse BEND3 cells assessed as change in TEER modulation at 135 mins; type: functional, cell-based
HepG2 [3] = experiment: Induction of lipid accumulation in human HepG2 cells at 1 uM incubated for 24 hrs by Oil Red O staining based analysis; type: functional, cell-based
Cannabinoid receptor 1 [4] = target: T1, Cannabinoid receptor 1 (Homo sapiens, UniProt P21554); experiment: Displacement of [3H]CP55940 from human CB1 receptor expressed in CHO cell membrane at 0.001 to 10 uM incubated for 2 hrs relative to control; type: cell membranes; conditions: dose 0.001-10 µM
Cannabinoid receptor 2 [5] = target: T2, Cannabinoid receptor 2 (Homo sapiens, UniProt P34972); experiment: Displacement of [3H]CP55940 from human CB2 receptor expressed in CHO cell membrane incubated for 2 hrs; type: cell membranes
HepG2 [6] = experiment: Anti-steatosis activity against oleate/palmitate-induced human HepG2 cells assessed as induction of lipolysis at 25 uM incubated for 24 hrs; type: functional, cell-based
Cannabinoid receptor 1 [7] = target: T1, Cannabinoid receptor 1; experiment: Displacement of [3H]CP55940 from human CB1 receptor; conditions: filed as agonist
Cannabinoid receptor 2 [8] = target: T2, Cannabinoid receptor 2; experiment: Displacement of [3H]CP55940 from human CB2 receptor expressed in CHO cell membrane at 0.001 to 10 uM incubated for 2 hrs relative to control; type: cell membranes; conditions: dose 0.001-10 µM
Cannabinoid receptor 2 [9] = target: T2, Cannabinoid receptor 2; experiment: Displacement of [3H]CP55940 from human CB2 receptor; conditions: filed as agonist
Cannabinoid receptor 1 [10] = target: T1, Cannabinoid receptor 1; experiment: Displacement of [3H]CP55940 from human CB1 receptor expressed in CHO cell membrane incubated for 2 hrs; type: cell membranes
Cannabinoid receptor 2 [11] = target: T2, Cannabinoid receptor 2; experiment: Agonist activity at human CB2 receptor expressed in CHO cells assessed as inhibition of forskolin-induced cAMP production at 1.8 nM incubated for 90 mins by HitHunter assay relative to control; type: functional, cell-based; design: scale not given: the % may be the effect or the level left; conditions: filed as agonist
Cannabinoid receptor 1 [12] = target: T1, Cannabinoid receptor 1; experiment: Agonist activity at human CB1 receptor expressed in CHO cells assessed as inhibition of forskolin-induced cAMP production incubated for 90 mins in presence of CP55940 ligand by HitHunter assay; type: functional, cell-based
Cannabinoid receptor 1 [13] = target: T1, Cannabinoid receptor 1; experiment: Agonist activity at human CB1 receptor expressed in CHO cells assessed as inhibition of forskolin-induced cAMP production incubated for 90 mins in presence of GAT211 ligand by HitHunter assay; type: functional, cell-based
Cannabinoid receptor 1 [14] = target: T1, Cannabinoid receptor 1; experiment: Agonist activity at human CB1 receptor expressed in CHO cells assessed as inhibition of forskolin-induced cAMP production at 100 nM incubated for 90 mins in presence of GAT211 ligand by HitHunter assay relative to control; type: functional, cell-based
Cannabinoid receptor 1 [15] = target: T1, Cannabinoid receptor 1; experiment: Agonist activity at human CB1 receptor expressed in CHO cells assessed as inhibition of forskolin-induced cAMP production at 100 nM incubated for 90 mins in presence of FM6b ligand by HitHunter assay relative to control; type: functional, cell-based; conditions: filed as agonist
Cannabinoid receptor 2 [16] = target: T2, Cannabinoid receptor 2; experiment: Agonist activity at human CB2 receptor expressed in CHO cells assessed as inhibition of forskolin-induced cAMP production incubated for 90 mins in presence of CP55940 ligand by HitHunter assay; type: functional, cell-based
Cannabinoid receptor 2 [17] = target: T2, Cannabinoid receptor 2; experiment: Agonist activity at human CB2 receptor expressed in CHO cells assessed as inhibition of forskolin-induced cAMP production incubated for 90 mins in presence of FM6b ligand by HitHunter assay; type: functional, cell-based
Cannabinoid receptor 1 [18] = target: T1, Cannabinoid receptor 1; experiment: Agonist activity at human CB1 receptor expressed in CHO cells assessed as inhibition of forskolin-induced cAMP production incubated for 90 mins in presence of FM6b ligand by HitHunter assay; type: functional, cell-based
Cannabinoid receptor 2 [19] = target: T2, Cannabinoid receptor 2; experiment: Agonist activity at human CB2 receptor expressed in CHO cells assessed as inhibition of forskolin-induced cAMP production at 100 nM incubated for 90 mins in presence of CP55940 ligand by HitHunter assay relative to control; type: functional, cell-based; conditions: filed as agonist
Cannabinoid receptor 2 [20] = target: T2, Cannabinoid receptor 2; experiment: Agonist activity at human CB2 receptor expressed in CHO cells assessed as inhibition of forskolin-induced cAMP production at 10 uM incubated for 90 mins by HitHunter assay; type: functional, cell-based; conditions: filed as agonist
Cannabinoid receptor 2 [21] = target: T2, Cannabinoid receptor 2; experiment: Agonist activity at human CB2 receptor expressed in CHO cells assessed as inhibition of forskolin-induced cAMP production at 100 nM incubated for 90 mins in presence of FM6b ligand by HitHunter assay relative to control; type: functional, cell-based; conditions: filed as agonist
Cannabinoid receptor 1 [22] = target: T1, Cannabinoid receptor 1; experiment: Agonist activity at human CB1 receptor expressed in CHO cells assessed as inhibition of forskolin-induced cAMP production at 100 nM incubated for 90 mins in presence of CP55940 ligand by HitHunter assay relative to control; type: functional, cell-based; conditions: filed as agonist
HepG2 [23] = experiment: Anti-steatosis activity against oleate/palmitate-induced human HepG2 cells assessed as reduction of lipid accumulation incubated for 24 hrs; type: functional, cell-based; conditions: dose 0.1-25 µM
HepG2 [24] = experiment: Induction of lipid accumulation in human HepG2 cells assessed as increase in lipolysis at 0.1 to 25 uM incubated for 24 hrs by Oil Red O staining based analysis; type: functional, cell-based; conditions: dose 0.1-25 µM
HepG2 [25] = experiment: Cytotoxicity against human HepG2 cells at 0.1 to 100 uM incubated for 24 hrs by MTT assay; type: functional, cell-based; conditions: dose 0.1-100 µM
HepG2 [26] = experiment: Induction of lipid accumulation in human HepG2 cells at 0.1 to 25 uM incubated for 24 hrs by Oil Red O staining based analysis; type: functional, cell-based; conditions: dose 0.1-25 µM
BEND3 [27] = experiment: Disruption of monolayer integrity in mouse BEND3 cells assessed as change in TEER modulation after 3 hrs; type: functional, cell-based
HepG2 [28] = experiment: Anti-steatosis activity against oleate/palmitate-induced human HepG2 cells assessed as induction of lipolysis at 0.1 to 25 uM incubated for 24 hrs; type: functional, cell-based; conditions: dose 0.1-25 µM
Cannabinoid receptor 1 [29] = target: T1, Cannabinoid receptor 1; experiment: Agonist activity at human CB1 receptor expressed in CHO cells assessed as inhibition of forskolin-induced cAMP production at 1 nM incubated for 90 mins in presence of CP55940 ligand by HitHunter assay relative to control; type: functional, cell-based; conditions: filed as agonist
[30] = Cytotoxicity against mouse BEND3 cells assessed as cell viability at 30 uM incubated for 24 hrs by WST-1 assay; type: functional; conditions: read-out: Activity

T2 sequence (P34972 whole entry): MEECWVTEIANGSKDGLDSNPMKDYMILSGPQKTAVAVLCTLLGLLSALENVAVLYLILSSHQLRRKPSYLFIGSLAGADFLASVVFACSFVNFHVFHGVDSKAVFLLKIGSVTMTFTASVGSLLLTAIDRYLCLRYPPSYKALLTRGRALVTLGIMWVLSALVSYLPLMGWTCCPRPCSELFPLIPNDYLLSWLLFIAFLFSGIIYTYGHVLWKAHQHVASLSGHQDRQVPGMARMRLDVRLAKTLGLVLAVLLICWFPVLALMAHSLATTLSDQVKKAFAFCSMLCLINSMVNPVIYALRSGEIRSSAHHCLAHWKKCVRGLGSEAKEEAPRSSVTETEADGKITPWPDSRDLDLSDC
T1 sequence (P21554 whole entry): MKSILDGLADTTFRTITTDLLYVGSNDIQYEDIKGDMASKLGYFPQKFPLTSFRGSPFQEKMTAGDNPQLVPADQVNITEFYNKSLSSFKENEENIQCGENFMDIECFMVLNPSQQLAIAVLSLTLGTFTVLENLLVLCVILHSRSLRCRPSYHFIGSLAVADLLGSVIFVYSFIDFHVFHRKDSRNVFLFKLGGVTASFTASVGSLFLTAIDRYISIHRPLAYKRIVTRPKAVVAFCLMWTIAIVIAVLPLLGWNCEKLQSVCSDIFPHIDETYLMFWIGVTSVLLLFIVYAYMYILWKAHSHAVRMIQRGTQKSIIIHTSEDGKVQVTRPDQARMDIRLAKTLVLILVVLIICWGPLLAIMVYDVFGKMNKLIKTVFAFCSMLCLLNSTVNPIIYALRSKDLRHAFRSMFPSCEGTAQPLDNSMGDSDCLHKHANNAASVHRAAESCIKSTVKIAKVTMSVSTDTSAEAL

Compound | Activity (BEND3 [1]) | Activity (BEND3 [2]) | Emax (Cannabinoid receptor 1 [4]) | IC50 (Cannabinoid receptor 2 [5]; read-out: pIC50 (converted)) | IC50 (Cannabinoid receptor 1 [10]) | EC50 (Cannabinoid receptor 1 [12]) | EC50 (Cannabinoid receptor 1 [13]) | Emax (Cannabinoid receptor 1 [14]) | Emax (Cannabinoid receptor 1 [15]) | EC50 (Cannabinoid receptor 1 [18]) | Emax (Cannabinoid receptor 2 [8]; filed as agonist) | Activity (Cannabinoid receptor 2 [20]) | also measured
O=C1OC2(c3ccc(O)cc3Oc3cc(O)ccc32)c2ccccc21 | Active | Active |  |  |  |  |  |  |  |  |  |  | 
Cc1c(C(=O)NN2CCCCC2)nn(-c2ccc(Cl)cc2Cl)c1-c1ccc(Cl)cc1 |  |  |  |  |  |  |  |  |  |  |  |  | Activity (HepG2 [3]): Active
Cc1c(Br)cc(C(=O)NC2CCCCCC2)c(=O)n1Cc1ccc(F)cc1 |  |  | 29% | 6.31 nM | 0.794 nM |  |  |  |  |  |  |  | Activity (HepG2 [6]): inactive; Activity (Cannabinoid receptor 1 [7]): Active; Emax (Cannabinoid receptor 2 [8]): 13%; Activity (Cannabinoid receptor 2 [9]): Active; Activity (Cannabinoid receptor 2 [11]): 104%
Cc1c(Br)cc(C(=O)NC2CCCCCC2)c(=O)n1CCCn1cc(CCC(=O)NCC(c2ccccc2)c2c(-c3ccccc3)[nH]c3ccccc23)nn1 (stereo unspecified) |  |  |  |  | 31.6 nM | 7.94 nM | 2 nM | 26% | 150% | 2510 nM | 130% | Active | Emax (Cannabinoid receptor 1 [4]; filed as agonist): 329%; EC50 (Cannabinoid receptor 2 [16]): 10 nM; EC50 (Cannabinoid receptor 2 [17]): 316 nM; IC50 (Cannabinoid receptor 2 [5]; read-out: IC50): 6.3 nM; Emax (Cannabinoid receptor 2 [19]): 123%; Emax (Cannabinoid receptor 2 [21]): 77%; Emax (Cannabinoid receptor 1 [22]): 61%
Cc1c(Br)cc(C(=O)NC2CCCCCC2)c(=O)n1CCCCCn1cc(CCCCC(=O)NCC(c2ccccc2)c2c(-c3ccccc3)[nH]c3ccccc23)nn1 (stereo unspecified) | Active | Active | 31% | 1000 nM | 126 nM | 1580 nM | 126 nM | 35% | 83% | 6.31 nM | 201% | Active | Activity (HepG2 [23]): Dose-dependent-effect; Activity (HepG2 [24]): Active; Activity (HepG2 [25]): Active; Activity (HepG2 [26]): Active; Activity (BEND3 [27]): Active; Activity (HepG2 [28]): Active; Emax (Cannabinoid receptor 1 [29]): 98%; viability at 30 µM [30]: > 75%
